Consider 17 molecules from EP4741391A1, “NMT INHIBITOR, AND PREPARATION METHOD THEREFOR AND USE THEREOF” (Nanjing Synnocare Pharmaceutical Technology Co., Ltd., priority 2023, dated 2025).

For one assay, the target named is T1, NMT1 enzyme (Homo sapiens, UniProt P30419).
T1 sequence (P30419 1-496): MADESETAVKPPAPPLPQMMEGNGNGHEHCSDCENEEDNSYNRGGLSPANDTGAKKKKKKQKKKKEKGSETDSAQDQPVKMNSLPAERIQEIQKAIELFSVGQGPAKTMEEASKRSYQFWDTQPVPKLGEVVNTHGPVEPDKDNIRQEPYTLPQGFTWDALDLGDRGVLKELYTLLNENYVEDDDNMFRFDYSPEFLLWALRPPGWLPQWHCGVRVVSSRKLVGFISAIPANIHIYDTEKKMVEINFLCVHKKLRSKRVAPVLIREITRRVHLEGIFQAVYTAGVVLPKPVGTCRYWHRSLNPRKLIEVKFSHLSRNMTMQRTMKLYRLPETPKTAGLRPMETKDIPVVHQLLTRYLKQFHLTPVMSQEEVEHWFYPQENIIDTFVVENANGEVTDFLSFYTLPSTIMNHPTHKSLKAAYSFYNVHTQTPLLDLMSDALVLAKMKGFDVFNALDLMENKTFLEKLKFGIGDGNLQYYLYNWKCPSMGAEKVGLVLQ
As to the kind of experiment: Inhibitory activity on NMT1 enzyme catalysis (fluorescence intensity, CPM probe). It counts as biochemical. As to conditions: 6 nM NMT1 enzyme, 1.25 µM myristoyl-CoA, 20 µM HSPP60 SRC peptide, 45 minutes at 25 °C. The protocol:
This study evaluated the ability of the compounds of the invention to inhibit NMT1 catalytic activity in vitro. The experiment used a FI (Fluorescence Intensity) analysis method, characterizing NMT1 inhibitors under conditions of 1.25 µM myristoyl-CoA (Lithium salt, Sigma, M4414). In this experiment, a synthesized peptide with the sequence H-Gly-Ser-Asn-Lys-Ser-Lys-Pro-Lys-NH2, HSPP60SRC (Nanjing Peptide Industry, NJP23953), was used as the reaction substrate. The final concentration of the NMT1 enzyme was 6 nM, the final concentration of CPM (Reactive thiol fluorescence probe, Invitrogen, D346) was 1 µM, the final concentration of HSPP60 SRC was 20 µM, and the final concentration of DMSO was 0.5%.
Compounds were dissolved in DMSO to obtain 10 mM stock solutions. Dose-response solutions were prepared with a top endpoint compound concentration of 3 mM, followed by three-fold serial dilutions in DMSO, totaling ten data points. Using an ECHO acoustic liquid handler (BECKMAN, ECHO 655 system), 0.05 µL of the diluted compound solutions was transferred to a 384-well assay plate (Corning, CLS4514). Then, 2.5 µL of the NMT1 enzyme working solution was added to the 384-well assay plate, followed by incubation at 25 °C for 10 minutes. Subsequently, 5 µL of the CPM and myristoyl-CoA working solution was added, the plate was centrifuged at 1000 rpm for 1 minute, and then 2.5 µL of the HSPP60 SRC working solution was added to initiate the reaction. The reaction was incubated at 25 °C for 45 minutes. The FI signal ([…]; ex: 405 nm) was detected using an HTS high-throughput screening multifunctional microplate reader (BMG, PHERA star FSX).
The inhibition rate of the compounds on NMT1 enzyme catalytic activity was calculated using the following formula: Inhibition Percentage (%) = 100 * (Mean of DMSO group - Mean of Compound group) / (Mean of DMSO group - Mean of Blank control group). The IC50 curve of the compounds was fitted using the software XLfit 5.5.0 according to the nonlinear regression equation. Table 1 provides the inhibitory activity of the compounds of the invention on NMT1 enzyme catalysis.

The test system of another assay is MV-4-11 cells. As to the kind of experiment: Anti-proliferative activity against MV-4-11 cells (three-day cell viability chemiluminescence). The conditions noted are these: MV-4-11 human monocytic leukemia cells, three days of exposure. It counts as cell-based. The protocol: This study utilized a cell proliferation assay to analyze the cytotoxicity of MV-4-11 human monocytic leukemia cells after three days of exposure to NMT1 inhibitors. The MV-4-11 cell line was purchased from Nanjing Cobuilder Biotechnology Co., Ltd., and cultured in IMDM medium (Viva cell) in an incubator (Thermo) at 37 °C with 5% CO2. In this experiment, NMT1 inhibitors were dissolved in DMSO to obtain 600 µM stock solutions. Dose-response solutions were prepared with a top endpoint compound concentration of 3 µM, followed by three-fold serial dilutions in DMSO, totaling eight data points. The final concentration of DMSO was 0.5%.
MV-4-11 cells were seeded into a white 96-well plate, 80 µL of cell suspension per well, containing 6000 MV-4-11 cells. The cell plate was placed in the CO2 incubator for overnight culture. Then, 20 µL of NMT1 inhibitor solutions at different concentrations were added to the wells. The 96-well plate was placed back into the incubator for three days. Another cell plate was prepared, and the signal was read on the day of drug addition to serve as the maximum value (Max value in the equation below) for data analysis. To this cell plate, 25 µL of cell viability chemiluminescence detection reagent was added per well, followed by incubation at room temperature for 10 minutes to stabilize the luminescence signal. A multi-label analyzer was used for reading.
The raw data were converted into inhibition rates using the equation (Sample - Min) / (Max - Min) * 100%. The IC50 values were then determined by fitting a four-parameter curve (using the "log(inhibitor) vs. response - Variable slope" model in GraphPad Prism). Min: wells treated with 0.5% DMSO; Max: Day 0 wells. Table 1 provides the inhibitory activity of the compounds of the invention on MV-4-11 cell proliferation. Table 1: Compound Inhibitory Activity against NMT1 Enzyme (IC50) and Anti-proliferative Activity against MV-4-11 Cells (IC50)

SMILES strings stand for the structures.

For the molecule `Cc1c(CCOc2c(-c3ccn4ncc(CN(C)C)c4c3)ccc(Cl)c2F)c(C(=O)N(C)C)nn1C` [Compound 8, 4-{2-[(3-chloro-6-{3-[(dimethylamino)methyl]pyrazolo[1,5-a]pyridin-5-yl}-2-fluorophenyl)oxy]ethyl}-1,5,N,N-tetramethylpyrazole-3-carboxamide], the IC50 – broadly, the concentration that inhibits the measured activity by half – amounted to 2.89 nM against NMT1 enzyme and 28.4 nM in the assay with MV-4-11 cells (Homo sapiens, MV4-11, 72 h).

As to `CNCc1cnn2ccc(-c3ccc(F)c(F)c3OCCc3c(C#N)nn(C)c3C)cc12` [Compound 27, 4-{2-[(2,3-difluoro-6-{3-[(methylamino)methyl]pyrazolo[1,5-a]pyridin-5-yl}phenyl)oxy]ethyl}-1,5-dimethylpyr azole-3-carbonitrile], the IC50 against NMT1 enzyme was 1.82 nM; in the assay on MV-4-11 cells (Homo sapiens, MV4-11, 72 h), less than 10 nM; in the assay on MV-4-11 cells, 5.56 nM.

With `CNCc1cnn2ccc(-c3ccc(F)c(F)c3OCCc3c(C)nn(C)c3C)cc12` [Compound 23, 5-(3,4-difluoro-2-{[2-(1,3,5-trimethylpyrazol-4-yl)ethyl]oxy}phenyl)-3-[(methylamino)methyl]pyrazolo[1,5-a]py ridine], the IC50 was 2.57 nM at NMT1 enzyme and 19.4 nM in the assay with MV-4-11 cells (Homo sapiens, MV4-11, 72 h).

Turning to `CNCc1cnn2ccc(-c3ccc(Cl)cc3OCCc3c(C(=O)N(C)C)nn(C)c3C)cc12` [Compound 2, 4-{2-[(5-chloro-2-{3-[(methylamino)methyl]pyrazolo[1,5-a]pyridin-5-yl}phenyl)oxy]ethyl}-1,5,N,N-tetramethyl pyrazole-3-carboxamide], the IC50 worked out at 2.13 nM against NMT1 enzyme and 23.4 nM in the assay with MV-4-11 cells (Homo sapiens, MV4-11, 72 h).

In the case of `Cc1c(CCOc2c(-c3ccn4ncc(CN(C)C)c4c3)ccc(F)c2F)c(C(=O)N(C)C)nn1C` [Compound 7, 4-{2-[(6-{3-[(dimethylamino)methyl]pyrazolo[1,5-a]pyridin-5-yl}-2,3-difluorophenyl)oxy]ethyl}-1,5,N,N-tetram ethylpyrazole-3-carboxamide], the IC50 against NMT1 enzyme was found to be 2.1 nM; with MV-4-11 cells (Homo sapiens, MV4-11, 72 h), 19.4 nM.

For the molecule `Cc1c(COc2cc(Cl)ccc2-c2ccn3ncc(CN(C)C)c3c2)c(C(=O)N(C)C)nn1C` [Compound 11, 4-{[(5-chloro-2-{3-[(dimethylamino)methyl]pyrazolo[1,5-a]pyridin-5-yl}phenyl)oxy]methyl}-1,5,N,N-tetrameth ylpyrazole-3-carboxamide], the IC50 against NMT1 enzyme was determined as 6.31 nM; in the assay with MV-4-11 cells (Homo sapiens, MV4-11, 72 h), 58.7 nM.

`Cc1c(CCOc2c(-c3ccn4ncc(CN(C)C)c4c3)ccc(Cl)c2Cl)c(C(=O)N(C)C)nn1C` [Compound 9, 4-{2-[(2,3-dichloro-6-{3-[(dimethylamino)methyl]pyrazolo[1,5-a]pyridin-5-yl}phenyl)oxy]ethyl}-1,5,N,N-tetra methylpyrazole-3-carboxamide]: the IC50 at NMT1 enzyme was found to be 3.68 nM; in the assay on MV-4-11 cells (Homo sapiens, MV4-11, 72 h), 32.5 nM.

Regarding `Cc1c(CCOc2cc(Cl)ccc2-c2ccn3ncc(CN(C)C)c3c2)c(C#N)nn1C` [Compound 13, 4-{2-[(5-chloro-2-{3-[(dimethylamino)methyl]pyrazolo[1,5-a]pyridin-5-yl}phenyl)oxy]ethyl}-1,5-dimethylpyrazole-3-carbonitrile], the IC50 was 2.79 nM at NMT1 enzyme and 23.2 nM with MV-4-11 cells (Homo sapiens, MV4-11, 72 h).

With `CNCc1cnn2ccc(-c3ccc(F)c(F)c3OCCc3c(CC#N)nn(C)c3C)cc12` [Compound 28, (4-{2-[(2,3-difluoro-6-{3-[(methylam ino)methyl]pyrazolo[1,5-a]pyridin-5-yl}phenyl)oxy]ethyl}-1,5-dimethylpyrazol-3-yl)acetonitrile], the IC50 against NMT1 enzyme was found to be 1.95 nM; with MV-4-11 cells (Homo sapiens, MV4-11, 72 h), 10.7 nM.

As for `CCNC(=O)c1nn(C)c(C)c1CCOc1cc(Cl)ccc1-c1ccn2ncc(CN(C)C)c2c1` [Compound 18, 4-{2-[(5-chloro-2-{3-[(dimethylamino)methyl]pyrazolo[1,5-a]pyridin-5-yl}phenyl)oxy]ethyl}-N-ethyl-1,5-dime thylpyrazole-3-carboxamide], the IC50 against NMT1 enzyme came to 2.97 nM; with MV-4-11 cells (Homo sapiens, MV4-11, 72 h) it was 30.2 nM.

In the case of `Cc1c(CCOc2cc(Cl)ccc2-c2ccn3ncc(CN(C)C)c3c2)c(CO)nn1C` [Compound 12, (4-{2-[(5-chloro-2-{3-[(dimethylamino)methyl]-pyrazolo [1,5-a]pyridin-5-yl}phenyl)oxy]ethyl}-1,5-dimethylpyrazol-3-yl)methanol], the IC50 against NMT1 enzyme is 3.67 nM; with MV-4-11 cells (Homo sapiens, MV4-11, 72 h), 31.7 nM.

On to `CCN(C)C(=O)c1nn(C)c(C)c1CCOc1cc(Cl)ccc1-c1ccn2ncc(CN(C)C)c2c1` [Compound 19, 4-{2-[(5-chloro-2-{3-[(dimethylamino)methyl]pyrazolo[1,5-a]pyridin-5-yl}phenyl)oxy]ethyl}-N-ethyl-1,5,N-tri methylpyrazole-3-carboxamide], for which the IC50 worked out at 3.21 nM at NMT1 enzyme and 29.8 nM with MV-4-11 cells (Homo sapiens, MV4-11, 72 h).

In the case of `Cc1c(CCOc2c(F)cccc2-c2ccn3ncc(CN(C)C)c3c2)c(C(=O)N(C)C)nn1C` [Compound 5, 4-{2-[(6-{3-[(dimethylamino)methyl]pyrazolo[1,5-a]pyridin-5-yl}-2-fluorophenyl)oxy]ethyl} -1 ,5,N,N-tetrameth ylpyrazole-3-carboxamide], the IC50 at NMT1 enzyme was determined as 1.74 nM; in the assay with MV-4-11 cells (Homo sapiens, MV4-11, 72 h) it was 11.8 nM.

Consider `CNC(=O)c1nn(C)c(C)c1CCOc1cc(Cl)ccc1-c1ccn2ncc(CN(C)C)c2c1` [Compound 17, 4-{2-[(5-chloro-2-{3-[(dimethylamino)methyl]pyrazolo[1,5-a]pyridin-5-yl}phenyl)oxy]ethyl}-1,5,N-trimethylp yrazole-3-carboxamide], for which the IC50 on NMT1 enzyme amounted to 2.38 nM; in the assay on MV-4-11 cells (Homo sapiens, MV4-11, 72 h), 25.8 nM.

Take `Cc1c(CCOc2cc(Cl)ccc2-c2ccn3ncc(CN(C)C)c3c2)c(C(=O)N(C)C)nn1C` [Compound 1, 4-{2-[(5-chloro-2-{3-[(dimethylamino)methyl]-pyrazolo [1,5-a]pyridin-5-yl}phenyl)oxy]ethyl}-1,5,N,N-tetramethylpyrazole-3-carboxamide]: the IC50 came out at 1.77 nM on NMT1 enzyme and 17.1 nM in the assay with MV-4-11 cells (Homo sapiens, MV4-11, 72 h).

Consider `CNCc1cnn2ccc(-c3ccc(F)cc3OCCc3c(C(C)O)nn(C)c3C)cc12` (centres unmarked) [Compound 35, 1-(4-{2-[(5-fluoro-2-{3-[(methylamino)methyl]pyrazolo[1,5-a]pyridin-5-yl}phenyl)oxy]ethyl}-1,5-dimethylpyrazol-3-yl)ethan-1-ol], for which the concentration for half-maximal inhibition (IC50) at NMT1 enzyme was 2.05 nM; in the assay on MV-4-11 cells (Homo sapiens, MV4-11, 72 h) it was 5.04 nM.

Consider `Cc1c(CCOc2cc(F)ccc2-c2ccn3ncc(CN(C)C)c3c2)c(C(=O)N(C)C)nn1C` [Compound 4, 4-{2-[(2-{3-[(dimethylamino)methyl]pyrazolo[1,5-a]pyridin-5-yl}-5-fluorophenyl)oxy]ethyl} -1 ,5,N,N-tetrameth ylpyrazole-3-carboxamide], for which the IC50 on NMT1 enzyme stood at 1.65 nM; in the assay with MV-4-11 cells (Homo sapiens, MV4-11, 72 h), 11.4 nM.
